Results on 3 compounds are retold here after patent US10294202B2, “Pyrrolidinones as herbicides” (FMC Corporation, priority 2013, dated 2019).

Experiment [1] deals with crabgrass, large. The experiment can be described thus: Test C pre-/postemergence herbicide test. The format is in vivo, Digitaria sanguinalis. In short, it runs like this: (§1)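 Pre- and postemergence greenhouse screen. Preemergence treatment went onto freshly planted seeds in loam–sand soil; postemergence treatment went onto plants 2 to 18 cm tall at the 1- to 4-leaf stage in sphagnum peat/vermiculite medium. Scoring at 13 to 15 days used a 0–100 control scale.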

In a further experiment the test system is wheat. The experiment can be described thus: Test A pre-/postemergence herbicide test. The format is in vivo, Triticum aestivum. Summed up:
(§2)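 Visual injury ratings, 0 = no effect, 100 = complete control, taken ~10 days after treatment against untreated greenhouse controls. Preemergence: directed soil spray onto seeded loam/sand pots. Postemergence: spray onto plants at one- to two-leaf stage, 2–10 cm tall.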

A further experiment concerns barnyardgrass. The experiment can be described thus: Test C flooded paddy test. The format is in vivo, Echinochloa crus-galli. The note with it: Flood. Summed up: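 Visual injury scored against controls after 13 to 15 days in the greenhouse, using 0 (no effect) to 100 (complete control). Test compounds went straight into paddy water held 3 cm above the soil surface on 2-leaf-stage plants, with that flood depth maintained for the whole test.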

For a further experiment, the system named is morningglory. The experiment can be described thus: Test A pre-/postemergence herbicide test. The format is in vivo, Ipomoea spp. Summed up: as §2
The test system of another experiment is kochia. The experiment can be described thus: Test C pre-/postemergence herbicide test. The format is in vivo, Kochia scoparia. In short, it runs like this:
as §1

Experiment [2] concerns crabgrass, large. The experiment can be described thus: Test A pre-/postemergence herbicide test. The format is in vivo, Digitaria sanguinalis. In short, it runs like this:
as §2

A further experiment relates to chickweed. Description: Test C postemergence herbicide test. The format is in vivo, Stellaria media. An excerpt: At the same time, plants selected from these crop and weed species and also barley (winter barley, Hordeum vulgare), […]), chickweed (common chickweed, Stellaria media), deadnettle (henbit deadnettle, Lamium amplexicaule), and canarygrass (littleseed canarygrass, Phalaris minor) were planted in pots containing Redi-Earth® planting medium (Scotts Company, 14111 Scottslawn Road, Marysville, Ohio 43041) comprising spaghnum peat moss, vermiculite, wetting agent and starter nutrients and treated with postemergence applications of test chemicals formulated in the same manner. Plants ranged in height from 2 to 18 cm (1- to 4-leaf stage) for postemergence treatments. Treated plants and controls were maintained in a greenhouse for 13 to 15 days, after which time all species were compared to controls and visually evaluated. Plant response ratings, summarized in Table C, are based on a scale of 0 to 100 where 0 is no effect and 100 is complete control. A dash (-) response means no test result.

[3] abbreviates: Preemergence, 62 g ai/ha, scale 0 to 100.
Where [4] appears, read: Preemergence, 125 g ai/ha, scale 0 to 100 (0 no effect, 100 complete control).
[5] abbreviates: Postemergence, 125 g ai/ha, 0 to 100 scale, 0 no effect, 100 complete control.
The mark [6] stands for this setting: Postemergence, 500 g ai/ha, 0 to 100 scale (0 no effect, 100 complete control).
Where [7] appears, read: Preemergence, 125 g ai/ha, visual rating on 0 to 100 scale (0 no effect, 100 complete control).
The mark [8] stands for this setting: preemergence, 500 g ai/ha, 0 to 100 scale.
[9] abbreviates: Postemergence, 31 g ai/ha, scale 0 to 100 (0 no effect, 100 complete control).
Setting [10] is: Postemergence, 62 g ai/ha, scale 0 (no effect) to 100 (complete control).
Where [11] appears, read: Postemergence, 125 g ai/ha, scale 0 to 100 (0 no effect, 100 complete control).
Where [12] appears, read: Postemergence, 250 g ai/ha, scale 0 to 100 (0 no effect, 100 complete control).
The mark [13] stands for this setting: Preemergence, 31 g ai/ha, scale 0 to 100, 0 is no effect and 100 is complete control.
Where [14] appears, read: Preemergence, 62 g ai/ha, scale 0 to 100 (0 no effect, 100 complete control).
Where [15] appears, read: Postemergence, 125 g ai/ha, visual rating on 0 to 100 scale (0 no effect, 100 complete control), approx. 10 days.
[16] abbreviates: 31 g ai/ha, scale 0 to 100 (0 no effect, 100 complete control).
Where [17] appears, read: 62 g ai/ha, scale 0 (no effect) to 100 (complete control).
The mark [18] stands for this setting: 125 g ai/ha, scale 0 to 100 (0 no effect, 100 complete control).
Where [19] appears, read: 250 g ai/ha, scale 0 to 100 (0 no effect, 100 complete control).

Take `O=C1NCC(c2ccc(F)cc2)C1C(=O)Nc1ccccc1F` (racemic) [Compound 16]: the “Crabgrass, Large plant response rating” value is listed as 95 with crabgrass, large [1] (Preemergence, 31 g ai/ha, scale 0 to 100 (0 no effect, 100 complete control)) and 90 with crabgrass, large [2] (setting [7]). The “Plant response rating, Crabgrass, Large” value in the experiment with crabgrass, large [1] (setting [3]) is 95; in the experiment with crabgrass, large [1] (setting [4]), 100; in the experiment with crabgrass, large [1] (Preemergence, 250 g ai/ha, scale 0 to 100 (0 no effect, 100 complete control)) it was 100; in the experiment on crabgrass, large [2] (setting [5]) it was 90; in the experiment with crabgrass, large [2] (setting [6]), 90; in the experiment with crabgrass, large [2] (setting [8]), 90. Also, the “Plant response rating, Wheat” value with wheat (setting [5]) was found to be 20; with wheat (setting [6]), 50; in the experiment with wheat (setting [8]) it was 0. Further, the “Wheat plant response rating” value in the experiment on wheat (setting [7]) was 0. The “Plant response rating, Barnyardgrass” value in the experiment with barnyardgrass (31 g ai/ha, scale of 0 to 100 where 0 is no effect and 100 is complete control, 13 to 15 days) is listed as 0; in the experiment with barnyardgrass (62 g ai/ha, scale of 0 to 100 where 0 is no effect and 100 is complete control, 13 to 15 days), 0; with barnyardgrass (125 g ai/ha, scale of 0 to 100 where 0 is no effect and 100 is complete control, 13 to 15 days) it was 0; with barnyardgrass (250 g ai/ha, scale 0 to 100), 15. Moreover, the “Plant response rating, Morningglory” value in the experiment with morningglory (setting [5]) came out at 0; in the experiment with morningglory (setting [6]) it was 10; with morningglory (setting [8]), 0. For the same compound, the “Morningglory plant response rating” value in the experiment on morningglory (setting [7]) was 0. The “Plant response rating, Kochia” value in the experiment on kochia (setting [3]) and in the experiment on kochia (setting [4]) was 0 in each case.

Regarding `O=C1NCC(c2cc(F)cc(F)c2)C1C(=O)Nc1ccc(F)cc1F` (racemic) [Compound 278], the “Plant response rating, Crabgrass, Large” value with crabgrass, large [1] (setting [9]) was found to be 0; with crabgrass, large [1] (setting [10]), 30; in the experiment with crabgrass, large [1] (setting [11]), 65; in the experiment with crabgrass, large [1] (setting [12]), 75; in the experiment on crabgrass, large [1] (setting [4]), 98. Further, the “Crabgrass, Large plant response rating” value with crabgrass, large [1] (setting [13]) came to 90; in the experiment with crabgrass, large [1] (setting [14]), 95. For the same compound, in the experiment on crabgrass, large [1] (Preemergence, 250 g ai/ha), the “Plant response rating (scale of 0 to 100), Crabgrass, Large” value is reported as 100. The “Plant response rating, Wheat” value with wheat (setting [15]) and in the experiment on wheat (setting [6]) was 0 each time. For the same compound, the “Plant response rating, Kochia” value is 0 in the experiment on kochia (setting [9]), 0 in the experiment with kochia (setting [10]), 0 with kochia (setting [11]) and 5 with kochia (setting [12]). The “Plant response rating, Chickweed” value in the experiment with chickweed (setting [16]), with chickweed (setting [17]), with chickweed (setting [18]) and in the experiment on chickweed (setting [19]) was 0 in each case.

For the compound `O=C1NCC(c2cc(F)cc(F)c2)C1C(=O)Nc1cccc(F)c1F` (racemic) [Compound 279], the “Plant response rating, Crabgrass, Large” value was found to be 25 in the experiment on crabgrass, large [1] (setting [9]); 65 in the experiment on crabgrass, large [1] (setting [10]); 70 with crabgrass, large [1] (setting [11]); 80 in the experiment with crabgrass, large [1] (setting [12]); 98 in the experiment with crabgrass, large [1] (setting [4]). Also, the “Crabgrass, Large plant response rating” value in the experiment on crabgrass, large [1] (setting [13]) amounted to 95; in the experiment on crabgrass, large [1] (setting [14]) it was 95. Moreover, the “Plant response rating (scale of 0 to 100), Crabgrass, Large” value in the experiment on crabgrass, large [1] (Preemergence, 250 g ai/ha) amounted to 100. Also, the “Plant response rating, Wheat” value in the experiment with wheat (setting [15]) is listed as 40; in the experiment with wheat (setting [6]), 60. The “Plant response rating, Kochia” value in the experiment with kochia (setting [9]) is recorded as 0; in the experiment with kochia (setting [10]), 30; in the experiment on kochia (setting [11]), 85; in the experiment with kochia (setting [12]) it was 35. The “Plant response rating, Chickweed” value was 5 in the experiment with chickweed (setting [16]), 75 with chickweed (setting [17]), 30 in the experiment with chickweed (setting [18]) and 5 in the experiment with chickweed (setting [19]).
